In article PMC12812009, “Optimization of 4‐Amino‐2‐Pyridone Inhibitors of Proprotein Convertase Subtilisin/Kexin Type 9: Integrating Structure–Activity and Structure–Metabolism Relationships” (Chemmedchem, 2025):
Where two headings read alike, the source gives them in different places.

Assays:
[1] = MTT cell viability assay in HepG2 cell cultures; format: cell-based, human; conditions: human, HepG2 cells, MTT
Method: The approach we set‐up to test the new PCSK9i was based on functional assay, which evaluated at the same time compounds cytotoxicity, and their effect on the secreted PCSK9 on the same cell line. First, cell viability was evaluated in HepG2 cell cultures using the MTT assay (CC50 values are reported in Table 1 and Figure 5 ) after 24 h of incubation in starving conditions (0.4% fetal bovine serum (FBS)). The low FBS concentration, and thus low extracellular lipoproteins, stimulates the sterol responsive element binding protein (SREBP) pathway, inducing the expression of LDLR, PCSK9, HMG‐CoA reductase,^[ [28] ^] thus increasing the uptake of exogenous cholesterol and enhancing the synthesis of endogenous cholesterol. This first step allowed us to calculate the CC50 and identify the noncytotoxic concentrations (viability higher than 90%; Table 1), then tested for PCSK9 inhibitory activity.
Cell viability was assessed using the MTT assay. Cells were seeded in 96‐well plates (2.5 × 10^4 cells/well) in MEM supplemented with 10% v/v FBS and incubated for 24 h. The cells were then treated with the synthesized compounds dissolved in DMSO at increasing concentrations (from 0.5 to 50 µM) in MEM supplemented with 0.4% v/v FBS for 24 h. Simvastatin [20 and 40 µM] and BBR [10 µM] (both from Merck, St. Louis, Missouri, USA) were used as internal controls as PCSK9 inducer and inhibitor, respectively.^[ [21] ^, [34] ^, [35] ^] The cells were then incubated for 2 h with a solution of MTT [1 mg mL^–1] in MEM supplemented with 0.4% v/v FBS, away from light sources. The supernatant was then collected and 200 µL of DMSO was added to each well to solubilize the newly formed formazan. Finally, an aliquot of 100 µL was taken to measure the absorbance at a wavelength of 570 nm using an absorbance microplate reader (Spark Tecan, Switzerland). Every experimental condition was run in duplicate and the average cell viability and standard deviation was calculated. Cell viability was expressed as the percentage of treated cells compared to untreated (basal) cells. CC50 values for each compound were calculated by interpolating the percentage of cell viability through nonlinear regression analysis of the log (inhibition) versus response using GraphPad Prism software version 8.0 (GraphPad Software Inc., La Jolla, CA).

secreted PCSK9 = assay: PCSK9 secretion in culture medium, ELISA on HepG2 supernatants; format: cell-based, human; conditions: for decrease of secreted PCSK9 vs. basal: given as decrease
Method: Next, the levels of secreted PCSK9 were quantified by ELISA assay (Figure 5) only on supernatants collected from cells treated with noncytotoxic concentrations of each compound, as reported in Table 1. Simvastatin (Simva) at 20 and 40 μM and berberine (BBR) at 10 μM were included as controls. As described in the literature, simvastatin induces PCSK9 expression as a compensatory mechanism in response to its cholesterol‐lowering effects, being a pharmacological competitor for HMG‐CoA reductase, the rate‐limiting enzyme of the cholesterol biosynthetic pathway.^[ [29] ^] In contrast, BBR, a natural compound, reduces the expression of PCSK9 levels through transcriptional inhibition, thus increasing the LDLR availability on plasma membrane.^[ [30] ^] As additional and distinct mechanism to the latter, BBR is also able to stabilize the transcript of LDLR, thus increasing its half‐life.^[ [31] ^] As expected, cells stimulated with simvastatin released more PCSK9 into the culture medium compared to unstimulated cells, with a statistically significant concentration‐dependent effect (+73% at 20 μM, p < 0.01; +200% at 40 μM, p < 0.0001), while BBR at 10 μM decreased PCSK9 levels in the medium more than 50% (p < 0.0001 vs. basal) (Figure 5).^[ [32] ^] The amount of PCSK9 secreted into the culture media was measured with an appropriate ELISA kit (R&D System, DY3888 and DY008B2) on the supernatants collected during the MTT assay. Every experimental condition was run in duplicate and the average PCSK9 secretion and standard deviation was calculated. A 4PL regression analysis was used to interpolate unknowns with the standard curve using GraphPad Prism v10.2, according to manufacturers’ instructions. The data were normalized onto the corresponding cell viability, and IC50 was then calculated using GraphPad Prism v10.2.

[2] = In vitro metabolic stability with mouse liver microsomes; format: in vitro ADME; conditions: 60 min; for metabolic stability (in words): MLM + NADPH-generating system; for metabolic stability, percentage of intact compound recovered relative to control: MLM 1 mg/ml + NADPH-generating system, 10 µM, HPLC
Method: All newly synthesized LSF derivatives of 5c were biologically evaluated to determine whether the introduced modifications influenced both metabolic stability and anti‐PCSK9 activity. Microsomal stability assays were conducted to assess the impact of LSF modifications on improving the stability of 5c. In these assays, LSF derivatives were incubated with mouse liver microsomes (MLM) and an NADPH‐generating system for 60 min, followed by HPLC analysis. Control samples included compounds and liver microsomes without the NADPH system, allowing for the assessment of nonspecific binding to microsomes. […] Acylated derivatives 12, 13, and 14 achieved stability levels exceeding 95%, as did the bicyclic derivative 7, which exemplifies a dual‐site functionalization.
MLM (pooled male) were obtained from Xenotech, LLC (Cambridge, Kansas City, USA). Glucose‐6‐phosphate (G6P), oxidized nicotinamide‐adenine‐dinucleotide phosphate (NADP^+), magnesium chloride (MgCl2), and glucose‐6‐phosphate‐dehydrogenase (G6PDH) were supplied by Sigma‐Aldrich (Milan, Italy). Metabolic stability assays were modified from Ferlenghi et al.^[ [33] ^] Briefly, samples were prepared in 100 mM phosphate buffered saline (PBS), pH 7.4, containing 1 mg ml^–1 MLM and a NADPH‐generating system (5 mM MgCl2, 10 mM glucose‐6‐phosphate, 2 mM NADP^+, 1.5 U ml^–1 of glucose‐6‐phosphate dehydrogenase). After incubation (37 °C, 5 min stirring), compounds stock solutions in DMSO were added to a final concentration of 10 µM. The final DMSO percentage in samples was kept at 0.5%. After 60 min, single aliquots of reaction mixture were withdrawn, added of two volumes of acetonitrile, centrifuged (10,000 g, 10 min) and the supernatant was analyzed by HPLC. The unspecific binding to MLM was evaluated by means of control samples in which the compounds were incubated in the absence of a NADPH generating system. The apparatus used for HPLC analysis was a Shimadzu instrument, with a reverse‐phase Nova‐Pak column (Waters) (C18 4 μm 3.9 × 150 mm, Waters). The mobile phase, pumped at a flow rate of 1.2 ml min^–1, consisted of water and acetonitrile in either a 50:50 (v/v) ratio (compounds 5c, 6a, 6b, 6c, 7, 8, 12, 13, 14, 17b) or a 40:60 (v/v) ratio (compounds 11 and 15) or a 30:70 (v/v) ratio (for compounds 17a, 18a, 18b). For compounds 9 and 10, a phosphate buffer (5.98 g L^–1 Na2HPO4, 0.19 g L^–1 KH2PO4, adjusted to pH 7.4 with 85% H3PO4 and supplemented with 1.4 mL L^–1 triethylamine; final pH: 8) and acetonitrile (50:50, v/v) were pumped at a flow rate of 2 mL min^–1. In all cases, column temperature was 35 °C, injection volume was 50 µl, and absorbance was monitored at 254 nm. Serial dilutions for the calibration curves were prepared in the interval 0.5–20 µM in either PBS:CH3CN or H2O:CH3CN mixture (50:50, v/v) for compounds 5c, 6a, 6b, 8, 9, 10, 11, 12, 13, 14, 15, 17a, 17b, 18a, 18b, and in acetonitrile for compounds 6c and 7.

[3] = 24 h incubation, HepG2, 0.4% FBS, 0.5-50.0 μM, read-out: CC50 (CI 95%)
[4] = printed in Figures 5 and 8, HepG2, 24 h, read-out: CC50
[5] = Homo sapiens, HepG2, Table S2, ELISA, non-cytotoxic concentrations, read-out: IC50 ± SD on PCSK9 secreted by HepG2
[6] = Homo sapiens, HepG2, 24 h, read-out: secreted PCSK9 change vs. basal
[7] = Homo sapiens, HepG2, 24 h, ELISA on supernatants, normalized to viability, Figures 5 and 8 and text, read-out: IC50 (anti-PCSK9 activity, PCSK9 secretion)
[8] = HepG2, 24 h, non-cytotoxic concentrations

## CO/C(=N\c1cc(C)n(Cc2ccc(C(F)(F)F)cc2)c(=O)c1)c1ccc(C(F)(F)F)cc1 [Compound 8, Methyl (Z)‐N‐(6‐Methyl‐2‐Oxo‐1‐(4‐(Trifluoromethyl)Benzyl)‐1,2‐Dihydropyridin‐4‐yl)‐4‐(Trifluoromethyl)Benzimidate]
[1]; [3]
  CC50 at 24 h: 30.2 µM
[1]; [4]
  CC50 at 24 h: 43.1 µM
Secreted PCSK9; 10 μM, HepG2, 24 h
  decrease of secreted PCSK9 vs. basal: 50%
Secreted PCSK9; [5]
  IC50: 7.2 ± 0.51 µM
[2]
  metabolic stability (in words): entirely metabolized

## Cc1cc(NCc2ccc(C(F)(F)F)cc2)c(I)c(=O)n1Cc1ccc(C(F)(F)F)cc1 [Compound 6c, 3‐Iodo‐6‐Methyl‐1‐(4‐(Trifluoromethyl)Benzyl)‐4‐((4‐(Trifluoromethyl)Benzyl)Amino)pyridin‐2(1H)‐One]
[1]; [3]
  CC50 at 24 h: 46.9 µM
Secreted PCSK9; [6]
  inhibition at 0.5 µM: 20%
[2]
  metabolic stability (in words): did not improve compared to the parent compound 5c

## Cc1cc(OCc2cccc(F)c2)cc(=O)n1Cc1ccc(Cl)cc1 [Compound 17b, 1‐(4‐Chlorobenzyl)‐4‐((3‐Fluorobenzyl)Oxy)‐6‐Methylpyridin‐2(1H)‐One]
[1]; [3]
  CC50 at 24 h: 10 µM
Secreted PCSK9; [6]
  inhibition at 5 µM: 82%
Secreted PCSK9; [7]
  IC50: < 2.5 µM
[2]
  metabolic stability (in words): did not show any improvement in metabolic stability compared to 5c

## COc1ccc2cc3[n+](cc2c1OC)CCc1cc2c(cc1-3)OCO2 [BBR, berberine, reference compound]
[1]; [4]
  CC50 at 24 h: 25 µM
Secreted PCSK9; 10 μM, HepG2, 24 h
  decrease of secreted PCSK9 vs. basal: more than 50%
Secreted PCSK9; Homo sapiens, 10 μM, HepG2, 24 h, read-out: secreted PCSK9 change vs. basal
  inhibition at 10 µM: 52%
Secreted PCSK9; [7]
  IC50: 10 µM

## Cc1cc(NCc2ccc(C(F)(F)F)cc2)c(Cl)c(=O)n1Cc1ccc(C(F)(F)F)cc1 [Compound 6a, 3‐Chloro‐6‐Methyl‐1‐(4‐(Trifluoromethyl)Benzyl)‐4‐((4‐(Trifluoromethyl)Benzyl)Amino)pyridin‐2(1H)‐One]
[1]; [3]
  CC50 at 24 h: 16 µM
Secreted PCSK9; [5]
  IC50: 5.4 ± 2.65 µM
Secreted PCSK9; [6]
  inhibition at 0.5 µM: 80%
  inhibition at 5 µM: 55%

## Cc1cc(NCc2ccc(C(F)(F)F)cc2)c(CN2CCCC2)c(=O)n1Cc1ccc(C(F)(F)F)cc1 [Compound 9, 6‐Methyl‐3‐(Pyrrolidin‐1‐ylmethyl)‐1‐(4‐(Trifluoromethyl)Benzyl)‐4‐((4‐(Trifluoromethyl)Benzyl)Amino)pyridin‐2(1H)‐One]
[1]; [3]
  CC50 at 24 h: 22.2 µM
Secreted PCSK9; [8]
  effect on PCSK9 secretion (in words): moderate but significant inhibition of PCSK9 secretion
[2]
  metabolic stability (in words): did not exhibit any enhancements relative to 5c

## CC(=O)N(Cc1ccc(C(F)(F)F)cc1)c1cc(C)n(Cc2ccc(C(F)(F)F)cc2)c(=O)c1 [Compound 12, N‐(6‐Methyl‐2‐Oxo‐1‐(4‐(Trifluoromethyl)Benzyl)‐1,2‐Dihydropyridin‐4‐yl)‐N‐(4‐(Trifluoromethyl)Benzyl)Acetamide]
[1]; [3]
  CC50 at 24 h: 43 µM
Secreted PCSK9; [8]
  effect on PCSK9 secretion (in words): did not inhibit PCSK9 in a dose‐dependent manner
Secreted PCSK9; [5]
  IC50: 13.6 ± 2.67 µM
Secreted PCSK9; Homo sapiens, 25 μM, HepG2, 24 h, read-out: secreted PCSK9 change vs. basal
  inhibition at 25 µM: 75%
[2]
  metabolic stability, percentage of intact compound recovered relative to control: exceeding 95%

## Cc1cc(N(Cc2ccc(C(F)(F)F)cc2)C(=O)CCl)cc(=O)n1Cc1ccc(C(F)(F)F)cc1 [Compound 14, 2‐Chloro‐N‐(6‐Methyl‐2‐Oxo‐1‐(4‐(Trifluoromethyl)Benzyl)‐1,2‐Dihydropyridin‐4‐yl)‐N‐(4‐(Trifluoromethyl)Benzyl)Acetamide]
[1]; [3]
  CC50 at 24 h: 15 µM
Secreted PCSK9; [8]
  effect on PCSK9 secretion (in words): a bit less effective than 8 at the highest concentration used
Secreted PCSK9; [5]
  IC50: 6.4 ± 0.37 µM
[2]
  metabolic stability, percentage of intact compound recovered relative to control: exceeding 95%

## Cc1cc(N(Cc2ccc(C(F)(F)F)cc2)C(=O)c2ccccc2)cc(=O)n1Cc1ccc(C(F)(F)F)cc1 [Compound 13, N‐(6‐Methyl‐2‐Oxo‐1‐(4‐(Trifluoromethyl)Benzyl)‐1,2‐Dihydropyridin‐4‐yl)‐N‐(4‐(Trifluoromethyl)Benzyl)Benzamide]
[1]; [4]
  CC50 at 24 h: > 50 µM
Secreted PCSK9; [6]
  inhibition at 0.5 µM: 17%
  inhibition at 5 µM: 51%
[2]
  metabolic stability, percentage of intact compound recovered relative to control: exceeding 95%

## Cc1cc2c(c(=O)n1Cc1ccc(C(F)(F)F)cc1)CN(C(C)C)CN2Cc1ccc(C(F)(F)F)cc1 [Compound 10, 3‐Isopropyl‐7‐Methyl‐1,6‐Bis(4‐(Trifluoromethyl)Benzyl)‐2,3,4,6‐Tetrahydropyrido[4,3‐d]pyrimidin‐5(1H)‐One]
[1]; [3]
  CC50 at 24 h: 21.9 µM
[2]
  metabolic stability (in words): less stable

## CCC(C)(C)C(=O)O[C@H]1C[C@@H](C)C=C2C=C[C@H](C)[C@H](CC[C@@H]3C[C@@H](O)CC(=O)O3)[C@H]21 [simvastatin, reference compound]
Secreted PCSK9; 20 μM, HepG2, 24 h
  secreted PCSK9 change vs. unstimulated cells: +73%
Secreted PCSK9; 40 μM, HepG2, 24 h
  secreted PCSK9 change vs. unstimulated cells: +200%
